Structures can show the parent of a compound that is named as a salt. Where two headings read alike, the source gives them in different places.
How the values were obtained:
A-10 cells = assay: Effects on cellular microtubules; assay type: cell-based; conditions: for Effect on interphase microtubules: 18 h, cell-based phenotypic screen, Fig. 3
WT βIII = assay: SRB antiproliferative assay, βIII-tubulin expressing line; assay type: cell-based; conditions: for Rr (relative resistance), effect of βIII-tubulin on drug sensitivity: IC50 of the WT βIII cell line divided by IC50 of the parental HeLa cells
Bovine brain tubulin = Bovine brain tubulin (Bos taurus, UniProt P81947+Q6B856); assay: Quantitative inhibition of tubulin assembly; assay type: biochemical
Bovine brain tubulin, sequence (Q6B856 whole entry): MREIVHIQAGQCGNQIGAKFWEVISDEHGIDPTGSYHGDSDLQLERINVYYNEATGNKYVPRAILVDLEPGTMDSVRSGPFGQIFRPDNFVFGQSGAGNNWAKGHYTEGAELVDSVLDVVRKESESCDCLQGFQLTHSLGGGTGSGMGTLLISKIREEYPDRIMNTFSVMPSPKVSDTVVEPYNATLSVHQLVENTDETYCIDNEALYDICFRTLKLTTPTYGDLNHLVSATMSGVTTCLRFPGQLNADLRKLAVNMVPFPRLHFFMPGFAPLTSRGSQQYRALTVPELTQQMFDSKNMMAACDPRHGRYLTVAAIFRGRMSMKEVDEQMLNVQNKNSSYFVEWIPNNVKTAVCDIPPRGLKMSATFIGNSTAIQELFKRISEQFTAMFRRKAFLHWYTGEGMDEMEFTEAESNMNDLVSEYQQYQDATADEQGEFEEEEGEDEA
Bovine brain tubulin, sequence (P81947 whole entry): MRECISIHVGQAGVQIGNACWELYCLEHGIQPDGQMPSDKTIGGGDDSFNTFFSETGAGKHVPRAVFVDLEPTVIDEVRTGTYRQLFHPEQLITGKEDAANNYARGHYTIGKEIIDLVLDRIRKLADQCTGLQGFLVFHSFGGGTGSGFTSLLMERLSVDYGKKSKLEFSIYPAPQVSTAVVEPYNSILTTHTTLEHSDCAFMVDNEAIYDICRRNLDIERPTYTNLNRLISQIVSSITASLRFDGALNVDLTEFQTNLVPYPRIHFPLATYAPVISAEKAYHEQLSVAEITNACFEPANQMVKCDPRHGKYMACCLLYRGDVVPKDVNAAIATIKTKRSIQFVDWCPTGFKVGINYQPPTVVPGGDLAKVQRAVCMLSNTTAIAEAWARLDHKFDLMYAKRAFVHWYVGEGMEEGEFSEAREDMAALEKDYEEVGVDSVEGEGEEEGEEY

[1] = tested on: purified bovine brain tubulin; assay: In vitro tubulin polymerization; assay type: biochemical; conditions: initial study, Fig. 5; 10% glycerol, 3 mg/mL purified tubulin, 10 mM GTP
MDA-MB-435 cells [2] = assay: Cell cycle analysis by flow cytometry; assay type: cell-based; conditions: MDA-MB-435, 24 h, 850 nM 1, 45 nM (±)-3•HCl
60 cancer cell lines = assay: NCI 60 tumor cell line panel, summary over the panel
MDA-MB-435 cells [3] = assay: Sulforhodamine B; assay type: cell-based
[4] = molecular target: tubulin (colchicine site) (Bos taurus, UniProt P81947+Q6B856); assay: Inhibition of [3H]colchicine binding to tubulin; parameters: species or system bovine; conditions: read-out: Inhibition of colchicine binding % Inhibition ± SD
tubulin (colchicine site), sequence (Q6B856 whole entry): as the sequence (Q6B856 whole entry) above
tubulin (colchicine site), sequence (P81947 whole entry): as the sequence (P81947 whole entry) above

HL-60(TB) = assay: NCI 60 cell line panel tumor cell growth inhibition; assay type: cell-based; conditions: Homo sapiens
SK-OV-3 = assay: SRB antiproliferative assay, parental line of Pgp isogenic pair; assay type: cell-based; conditions: Homo sapiens, SK-OV-3, read-out: IC50 (SD) SK-OV-3
SK-OV-3 MDR-1-6/6 = assay: SRB antiproliferative assay, Pgp overexpressing; assay type: cell-based; conditions: Homo sapiens, SK-OV-3, read-out: IC50 (SD) SK-OV-3 MDR-1-6/6
HeLa = assay: SRB antiproliferative assay, parental line of βIII-tubulin isogenic pair; assay type: cell-based; conditions: Homo sapiens, read-out: IC50 (SD) HeLa
K-562 = assay: NCI 60 cell line panel tumor cell growth inhibition; conditions: Homo sapiens, K562
SR = assay: as above; conditions: Homo sapiens
NCI-H522 = assay: as above; conditions: Homo sapiens
HCT-15 = assay: as above; conditions: Homo sapiens
KM12 = assay: as above; conditions: Homo sapiens
SW-620 = assay: as above; conditions: Homo sapiens
SF-295 = assay: as above; conditions: Homo sapiens
SNB-75 = assay: as above; conditions: Homo sapiens
MDA-MB-435 = assay: as above; conditions: Homo sapiens
SK-MEL-28 = assay: as above; conditions: Homo sapiens
SK-MEL-5 = assay: as above; conditions: Homo sapiens
UACC-62 = assay: as above; conditions: Homo sapiens
OVCAR-3 = assay: as above; conditions: Homo sapiens
NCI/ADR-RES = assay: as above; conditions: Homo sapiens
A498 = assay: as above; conditions: Homo sapiens
RXF 393 = assay: as above; conditions: Homo sapiens
MCF7 = assay: as above; conditions: Homo sapiens
HS 578T = assay: as above; conditions: Homo sapiens
MDA-MB-468 = assay: as above; conditions: Homo sapiens
[5] = Homo sapiens, MDA-MB-435, read-out: IC50±SD (MDA-MB-435)

COc1ccc(N(C)c2nc(C)nc3[nH]ccc23)cc1 [Compound 1, N-(4-Methoxyphenyl)-N,2-dimethyl-7H-pyrrolo[2,3-d]pyrimidin-4-amine]
Effect on interphase microtubules (A-10 cells; A-10 cells): dramatic reorganization of the interphase microtubule network | Rr (relative resistance), effect of βIII-tubulin on drug sensitivity (WT βIII): 0.6–0.7 | IC50 (Bovine brain tubulin): 2600 ± 50 nM | Effect on polymerization of purified tubulin [1]: potent inhibitors of purified tubulin assembly | Cell cycle effect (MDA-MB-435 cells [2]): mitotic accumulation | GI50 (60 cancer cell lines): < 500 nM

COc1ccccc1N(C)c1nc(C)nc2c1CC(C)C2.Cl (racemic) [(±)-6•HCl, N-(2-Methoxyphenyl)-N,2,6-trimethyl-6,7-dihydro-5H-cyclopenta[d]pyrimidin-4-aminium chloride]
Activity (A-10 cells; Table 2 data, 2′-OCH3 analog): inactive

COc1cccc(N(C)c2nc(C)nc3c2CC(C)C3)c1.Cl (racemic) [(±)-5•HCl, N-(3-Methoxyphenyl)-N,2,6-trimethyl-6,7-dihydro-5H-cyclopenta[d]pyrimidin-4-aminium chloride]
IC50 (MDA-MB-435 cells [3]; [5]): 153 ± 11.1 nM | fold less potent than (±)-3•HCl (MDA-MB-435 cells [3]; comparison of 3′-OCH3 with 4′-OCH3 analog, Table 2): about 9 fold

COc1ccc(/C=C\c2cc(OC)c(OC)c(OC)c2)cc1OP(=O)(O)O [CA4P, combretastatin A-4 phosphate, reference compound]
IC50 (Bovine brain tubulin): 1000 ± 90 nM | inhibition at 1 µM [4]: 88 ± 2% | inhibition at 5 µM [4]: 99 ± 0.2%

Cc1nc2c(c(N(C)c3ccccc3)n1)CC(C)C2 (racemic) [(±)-7•HCl, N-Phenyl-N,2,6-trimethyl-6,7-dihydro-5H-cyclopenta[d]pyrimidin-4-aminium chloride]
IC50 (MDA-MB-435 cells [3]; [5]): 2700 ± 300 nM

N-(4-Methoxyphenyl)-2,6-dimethyl-6,7-dihydro-5H-cyclopenta[d]pyrimidin-4-amine [(±)-4]
IC50 (MDA-MB-435 cells [3]; read-out: IC50±SD (MDA-MB-435), inhibition of proliferation, SRB assay): > 10000 nM | EC50 (A-10 cells; read-out: EC50 for microtubule depolymerization, concentration required to cause 50% loss of cellular microtubules, A-10 cells): > 40000 nM

COc1ccc(N(C)c2nc(C)nc3c2CC(C)C3)cc1.Cl (racemic) [(±)-3•HCl, N-(4-Methoxyphenyl)-N,2,6-trimethyl-6,7-dihydro-5H-cyclopenta[d]pyrimidin-4-aminium chloride]
GI50 (HL-60(TB)): < 10 nM | IC50 (MDA-MB-435 cells [3]; [5]): 17 ± 0.7 nM | Effect on interphase microtubules (A-10 cells; A-10 cells): dramatic reorganization of the interphase microtubule network | IC50 (SK-OV-3): 38.6 ± 3.1 nM | IC50 (SK-OV-3 MDR-1-6/6): 44.4 ± 3.2 nM | IC50 (HeLa): 37.3 ± 4.1 nM | Rr (relative resistance), effect of βIII-tubulin on drug sensitivity (WT βIII): 0.6–0.7 | Rr (relative resistance), effect of βIII-tubulin on drug sensitivity (WT βIII; listed as (±)-3•HCI): 0.6 | IC50 (WT βIII; read-out: IC50 (SD) WT βIII): 23.9 ± 1.7 nM | IC50 (Bovine brain tubulin): 1900 ± 10 nM | inhibition at 1 µM [4]: 60 ± 2% | inhibition at 5 µM [4]: 84 ± 3% | Effect on polymerization of purified tubulin [1]: potent inhibitors of purified tubulin assembly | Cell cycle effect (MDA-MB-435 cells [2]): mitotic accumulation | GI50 (K-562): < 10 nM | GI50 (SR): < 10 nM | GI50 (NCI-H522): < 10 nM | GI50 (HCT-15): < 10 nM | GI50 (KM12): < 10 nM | GI50 (SW-620): < 10 nM | GI50 (SF-295): < 10 nM | GI50 (SNB-75): < 10 nM | GI50 (MDA-MB-435): < 10 nM | GI50 (SK-MEL-28): < 10 nM | GI50 (SK-MEL-5): < 10 nM | GI50 (UACC-62): < 10 nM | GI50 (OVCAR-3): < 10 nM | GI50 (NCI/ADR-RES): < 10 nM | GI50 (A498): < 10 nM | GI50 (RXF 393): < 10 nM | GI50 (MCF7): < 10 nM | GI50 (HS 578T): < 10 nM | GI50 (MDA-MB-468): < 10 nM | GI50 (60 cancer cell lines): < 30 nM

— publication PMC2988971 (Journal of medicinal chemistry, 2010)
